“Also recorded” adds a separate entry of the source.

Experimental findings from patent publication US20240408145A1, “Gene Therapy” (Ospedale San Raffaele S.r.l., priority 2021, published 2024) are described below.

One series has as its system CB-derived HSPCs. Description: Whole transcriptomic analysis with GSEA. Particulars: CB HSPCs edited in presence of Anakinra vs not treated, 24 and 96 h. Type of series: cell-based, human. As to the method:
Whole transcriptomic analysis was performed on a pool of HSPCs derived from five CB donors. All conditions were performed in triplicate. […] RNA was quantified with The Qubit 2.0 Fluorometer (ThermoFisher) and its quality was assessed by a 2100 Agilent Bioanalyser (Agilent Technologies). Minimum quality was defined as RNA integrity number (RIN) >8,300 ng of total RNA were used for library preparation with TruSeq Stranded Total RNA with Ribo-Zero Gold kit (Illumina) and sequenced on a NextSeq 500 (Illumina). Read quality was determined using FastQC and low-quality sequences were trimmed using Trimmomatic. RNA-seq data were aligned to the human reference genome (GRCh38/hg38) using both HISAT2 and STAR with standard input parameters. Gene counts were produced using Subread featureCounts against Genecode v26 or v31, considering results produced by both the aligners. After visual inspection of results, we continued the analysis using alignments achieved using HISAT, which provided more conservative alignments. […] Differential expression was determined considering only protein coding genes and correcting p-values using FDR.

A further series deals with edited human CD34+ HSPCs. In words: CD34+ HSPC xenotransplantation in NSG mice. Type of series: in vivo.
The test system of series [1] is human CD34+ HSPCs. Description: Culture composition of HSPC subpopulations (flow cytometry). Type of series: cell-based. (In general: In flow cytometry, cells or beads pass a laser one at a time.)
Another series deals with IL1A, IL8, IL6, CCL2. Description: Inflammatory cytokine expression in edited HSPCs (qPCR). Type of series: cell-based, human. Particulars: CB HSPCs, HS/AAV6; inhibitor at time of GE vs standard protocol. In general terms: Real-time PCR tracks product formation cycle by cycle.
Series [2] deals with BM-derived human CD34+ cells. Description: Senescence markers (p16, SA-β-Gal) in BM-derived cells of the human graft. Type of series: in vivo, NSG mice.
The test system of the next series is CDKN1A (p21). In words: p21 expression in edited HSPCs (qPCR). In kind it is cell-based, human. Particulars: CB HSPCs, HS/AAV6 ± Anakinra, 24 and 96 h. Here is the method: For gene expression analyses, total RNA was extracted using either miRNeasy Micro Kit (QIAGEN) according to the manufacturer's instructions and DNase treatment was performed using RNase-free DNase Set (QIAGEN). cDNA was synthetized with iScript cDNA Synthesis Kit (Bio-Rad). cDNA was then pre-amplified using TaqMan PreAmp Master Mix (ThermoFisher) and used for q-PCR in a Viia7 Real-time PCR thermal cycler using both Fast SYBR Green Master Mix (Thermofisher), after standard curve method optimization to reach the 100% primer efficiency for each couple of primers listed in 1. The relative expression of each target gene was first normalized to GUSB housekeeping genes expression and then represented as 2^-DCt for each sample or as fold changes (2^-DDCt) relative to the indicated control conditions.

Series [3] relates to human CD34+ HSPCs. Description: Colony-forming unit cell (CFU-C) assay. In kind it is cell-based.
Series [4] has as its system human CD34+ HSPCs. In words: Apoptosis analysis of HSPCs (Annexin V, 7AAD). In kind it is cell-based. Particulars: HSPCs edited with COMBO, 24 h upon GE.
Series [5] deals with human CD34+ HSPCs. Description: Senescence markers in HSPCs ex vivo (p16). In kind it is cell-based. Particulars: mPB-derived HSPCs, 24 h and 96 h upon GE.
Series [6] deals with human CD34+ HSPCs. Description: HDR gene editing efficiency in HSPCs (ddPCR, GFP flow cytometry). In kind it is cell-based.

For “Anakinra: recombinant and slightly modified form of the Human interleukin-1 receptor antagonist (IL-1Ra); SEQ ID NO: 3”, in the series on CB-derived HSPCs, the “GSEA normalized enrichment scores for inflammatory/TNFα dependent pathways, interferon responses, senescence categories” value was “negative and significantly high normalized enrichment scores (NES); also recorded: downregulated early and late upon Anakinra treatment”. Also, the “Percentage of human edited (GFP+) cells in peripheral blood” value with edited human CD34+ HSPCs (HS/AAV6 ± Anakinra) was “higher and stable percentage of GFP+ cells; also recorded: reproducible higher and stable levels of HDR-edited cells”. In addition, in the series on edited human CD34+ HSPCs (endpoint, HS/AAV6 ± Anakinra), the “Percentage of GFP+ cells in BM human graft, HSPC, B and myeloid lineages” value was “improved long-term reconstitution”. Further, the “Percentage of human HDR-edited cells in bone marrow” value in the series on edited human CD34+ HSPCs (mPB HSPCs, 15 weeks) was “trend of higher levels of HDR-edited cells”. The “Percentage of human CD45+ cells in bone marrow” value with edited human CD34+ HSPCs (mPB HSPCs, matching low doses, 15 weeks) was “comparable human engraftment independently of Anakinra treatment”. Besides, the “Percentage of human CD45+ cells in peripheral blood (plateau of circulating cells)” value in the series with edited human CD34+ HSPCs (saturating cell doses, HS/AAV6 ± Anakinra) is given as 35-40%. The “Culture composition of HSPC subpopulations” value in the series with human CD34+ HSPCs [1] (CB HSPCs, 24 h and 96 h post gene editing ± Anakinra) is on record as “No treatment skewed culture composition over time”. Further, the Culture composition skewing entry with human CD34+ HSPCs [1] (HSPCs edited with COMBO, 24 h and 96 h) is “without overt apoptosis (FIG. 17I) and culture composition skewing”. In the series on human CD34+ HSPCs [1] (mPB-derived HSPCs ± Anakinra), the “HSPC culture composition and differentiation” value is “did not alter HSPC culture composition and differentiation”. Further, in the series on IL1A, IL8, IL6, CCL2, the “Relative expression of inflammatory cytokine genes (IL1A, IL8, IL6, CCL2)” value is listed as “downregulated 96 h upon Anakinra treatment”. Further, the “Percentage of senescent cells (p16, SA-β-Gal) in BM-derived CD34+ / HDR-edited cells of the human graft” value in series [2] (NSG mice, endpoint 15-18 weeks, inhibitor at time of ex vivo GE) is “decrease”. In addition, in [2] (mPB HSPCs, BM-derived HSPC), the “Senescence burden (p16+) in the human graft” value is “reduction in the senescence burden in the human graft; also recorded: dampened GE-related senescence establishment”. Moreover, in the series on CDKN1A (p21), the “Relative expression of CDKN1A (p21)” value is “upregulated upon GE compared to negative controls independently from Anakinra treatment”. Moreover, the “Number of colonies (HSPC clonogenic potential)” value in the series with human CD34+ HSPCs [3] (CB HSPCs, HS/AAV6, inhibitor at time of GE vs standard protocol, 24 h and 96 h post GE) is listed as “significant increase in HSPC clonogenic potential; also recorded: strongly improved HSPC clonogenic potential in vitro; also recorded: strongly improved HSPC clonogenic potential ex-vivo”. Also, in the series with human CD34+ HSPCs [3] (HSPCs edited with COMBO, 24 and 96 h), the “Clonogenic potential (number of colonies)” value is listed as “increase in the clonogenic potential of the cells”. Also, the “Clonogenic potential of edited cells” value in the series with human CD34+ HSPCs [3] (mPB-derived HSPCs, 24 and 96 h post GE) is given as “significantly improved the clonogenic potential of edited cells”. The Apoptosis entry in the series with human CD34+ HSPCs [4] is reported as “without overt apoptosis”. In addition, the “Percentage of p16+ senescent cells in GFP+ HDR-edited cells” value in the series on human CD34+ HSPCs [5] was “partially mitigated by Anakinra treatment”. The “Percentage of HDR-edited alleles (ddPCR)” value with human CD34+ HSPCs [6] (CB HSPCs, AAVS1 editing (HS/AAV6), inhibitor at time of GE (Anakinra 50 ng/μl, SC514 25 μM, GSE56 mRNA, ATMi) vs standard protocol) is “equal percentage of HDR-edited alleles; also recorded: did not affect HSPC ability to repair via HDR”. Moreover, in the series with human CD34+ HSPCs [6] (CB HSPCs, HS/AAV6, inhibitor at time of GE vs standard protocol), the “Percentage of GFP+ cells within HSPC subpopulations (GE efficiency)” value is recorded as “maintained the efficiency of GE across all HSPC subpopulations; also recorded: no significant differences in GE efficiency in all HSPC subpopulations”. Also, in the series on human CD34+ HSPCs [6] (HSPCs edited with COMBO), the “HSPC ability to repair via HDR (GFP+ cells)” value is reported as “without impairing HSPC ability to repair via HDR”. Further, the “HDR ability / percentage of GFP+ cells in HSPC subpopulations” value in the series with human CD34+ HSPCs [6] (mPB-derived HSPCs, AAVS1, inhibitor within 15 minutes upon GE) is listed as “did not affect HSPC ability to repair via HDR”.
